Data published in ChEMBL document CHEMBL2331140, “A novel series of tacrine-selegiline hybrids with cholinesterase and monoamine oxidase inhibition activities for the treatment of Alzheimer's disease” (Eur J Med Chem, 2013).

Columns and labels:
[1] = target: T1, Amine oxidase [flavin-containing] B (Homo sapiens, UniProt P27338); conditions: read-out: INH
T1 sequence (P27338 whole entry): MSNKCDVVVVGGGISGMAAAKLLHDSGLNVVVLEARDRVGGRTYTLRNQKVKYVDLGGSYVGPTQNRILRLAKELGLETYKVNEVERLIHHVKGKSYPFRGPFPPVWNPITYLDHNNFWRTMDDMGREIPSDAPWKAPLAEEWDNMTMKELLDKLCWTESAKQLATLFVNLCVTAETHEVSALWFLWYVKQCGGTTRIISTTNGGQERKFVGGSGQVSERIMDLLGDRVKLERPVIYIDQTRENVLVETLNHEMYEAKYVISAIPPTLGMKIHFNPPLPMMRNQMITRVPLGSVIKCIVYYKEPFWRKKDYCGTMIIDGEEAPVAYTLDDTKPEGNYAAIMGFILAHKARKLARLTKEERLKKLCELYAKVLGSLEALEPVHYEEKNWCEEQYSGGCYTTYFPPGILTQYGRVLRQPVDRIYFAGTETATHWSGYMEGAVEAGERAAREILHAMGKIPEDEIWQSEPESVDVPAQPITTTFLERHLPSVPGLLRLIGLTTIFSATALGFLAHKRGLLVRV

[2] = target: T1, Amine oxidase [flavin-containing] B; conditions: 20 min, read-out: INH
Cholinesterase = Cholinesterase (Equus caballus, UniProt P81908)
Chain of Cholinesterase (P81908 whole entry): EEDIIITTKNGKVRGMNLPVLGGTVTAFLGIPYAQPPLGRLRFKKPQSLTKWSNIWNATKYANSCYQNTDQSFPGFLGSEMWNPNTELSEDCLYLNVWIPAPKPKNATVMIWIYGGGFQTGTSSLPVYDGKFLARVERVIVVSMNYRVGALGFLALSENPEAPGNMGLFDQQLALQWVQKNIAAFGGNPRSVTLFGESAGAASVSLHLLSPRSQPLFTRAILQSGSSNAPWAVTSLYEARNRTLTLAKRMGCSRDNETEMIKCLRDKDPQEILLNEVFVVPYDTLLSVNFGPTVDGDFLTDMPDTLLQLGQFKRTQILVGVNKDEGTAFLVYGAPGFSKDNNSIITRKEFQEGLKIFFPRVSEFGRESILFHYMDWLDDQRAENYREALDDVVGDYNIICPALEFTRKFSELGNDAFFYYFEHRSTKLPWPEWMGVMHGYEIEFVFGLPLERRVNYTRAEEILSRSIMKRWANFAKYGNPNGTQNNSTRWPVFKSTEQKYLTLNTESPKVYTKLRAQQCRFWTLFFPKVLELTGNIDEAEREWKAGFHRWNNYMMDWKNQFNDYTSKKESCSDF
Description: Inhibition of horse serum BChE using butyrylthiocholine chloride as substrate after 15 mins by Ellman's method

Acetylcholinesterase = Acetylcholinesterase (Electrophorus electricus, UniProt O42275)
Chain of Acetylcholinesterase (O42275 whole entry): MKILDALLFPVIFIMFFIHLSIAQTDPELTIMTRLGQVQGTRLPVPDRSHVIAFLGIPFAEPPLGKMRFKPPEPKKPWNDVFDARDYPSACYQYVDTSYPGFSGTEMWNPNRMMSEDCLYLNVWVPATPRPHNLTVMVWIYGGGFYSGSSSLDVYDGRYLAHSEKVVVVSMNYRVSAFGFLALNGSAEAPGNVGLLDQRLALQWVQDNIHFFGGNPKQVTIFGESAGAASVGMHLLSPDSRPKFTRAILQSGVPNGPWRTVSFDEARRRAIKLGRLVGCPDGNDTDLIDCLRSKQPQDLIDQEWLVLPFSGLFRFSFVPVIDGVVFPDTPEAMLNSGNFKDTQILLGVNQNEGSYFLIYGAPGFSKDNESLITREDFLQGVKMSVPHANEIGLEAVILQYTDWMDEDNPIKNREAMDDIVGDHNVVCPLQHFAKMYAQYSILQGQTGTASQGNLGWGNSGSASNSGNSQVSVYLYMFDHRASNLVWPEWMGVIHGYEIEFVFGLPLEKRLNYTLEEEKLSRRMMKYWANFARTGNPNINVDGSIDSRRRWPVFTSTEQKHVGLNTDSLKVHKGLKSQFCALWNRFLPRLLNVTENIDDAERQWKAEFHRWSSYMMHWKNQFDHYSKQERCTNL
Description: Inhibition of electric eel AChE using acetylthiocholine chloride as substrate after 15 mins by Ellman's method

[3] = Selectivity index, ratio of IC50 for recombinant human MAO-A to IC50 for recombinant human MAO-B
[4] = target: T1, Amine oxidase [flavin-containing] B
Description: Inhibition of recombinant human MAO-B using p-benzylamine substrate preincubated for 15 mins before substrate addition measured after 20 mins by fluorescence assay

[5] = target: T2, Amine oxidase [flavin-containing] A (Homo sapiens, UniProt P21397)
T2 sequence (P21397 whole entry): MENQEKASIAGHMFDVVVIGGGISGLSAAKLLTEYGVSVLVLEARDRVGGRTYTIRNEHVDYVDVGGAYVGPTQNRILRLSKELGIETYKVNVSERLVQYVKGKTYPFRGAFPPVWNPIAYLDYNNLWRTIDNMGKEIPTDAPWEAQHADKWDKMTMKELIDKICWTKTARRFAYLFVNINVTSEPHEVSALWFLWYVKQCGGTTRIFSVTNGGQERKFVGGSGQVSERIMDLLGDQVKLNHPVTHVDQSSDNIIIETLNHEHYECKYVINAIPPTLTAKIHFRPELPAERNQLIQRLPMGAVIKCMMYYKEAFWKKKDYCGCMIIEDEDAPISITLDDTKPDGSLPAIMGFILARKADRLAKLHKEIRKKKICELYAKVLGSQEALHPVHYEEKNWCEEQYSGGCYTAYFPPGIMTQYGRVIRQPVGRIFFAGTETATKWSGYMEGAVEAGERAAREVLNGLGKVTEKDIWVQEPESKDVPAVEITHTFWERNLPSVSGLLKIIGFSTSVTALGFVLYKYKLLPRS
Description: Inhibition of recombinant human MAO-A using p-tyramine substrate preincubated for 15 mins before substrate addition measured after 20 mins by fluorescence assay

## C#CCN(C)[C@H](C)Cc1ccc(OCCCCCCCCCNc2c3c(nc4ccccc24)CCCC3)cc1
[1]
  inhibition at 0.2 µM: 81.6%
[2]
  inhibition at 0.2 µM: 70.8%
Cholinesterase
  IC50: 9.37 nM
Acetylcholinesterase
  IC50: 22.6 nM

## C#CCN(C)[C@H](C)Cc1ccc(OCCCCNc2c3c(nc4ccccc24)CCCC3)cc1
[3]
  Ratio IC50: 0.8
[4]
  IC50: 8550 nM
[5]
  IC50: 7000 nM
Cholinesterase
  IC50: 39.6 nM
Acetylcholinesterase
  IC50: 53 nM

## C#CCN(C)[C@H](C)Cc1ccc(OCCCCCCCCNc2c3c(nc4cc(Cl)ccc24)CCCC3)cc1
[3]
  Ratio IC50: 1.5
[4]
  IC50: 129 nM
[5]
  IC50: 193 nM
Cholinesterase
  IC50: 17.6 nM
Acetylcholinesterase
  IC50: 55.4 nM

## C#CCN(C)[C@H](C)Cc1ccc(OCCCCCCCCNc2c3c(nc4ccccc24)CCCC3)cc1
[3]
  Ratio IC50: 3.5
[4]
  IC50: 167 nM
[5]
  IC50: 591 nM
Cholinesterase
  IC50: 35.5 nM
Acetylcholinesterase
  IC50: 147 nM

## C#CCN(CCCCCCNc1c2c(nc3ccccc13)CCCC2)[C@H](C)Cc1ccc(OC)cc1
[3]
  Ratio IC50: 1.9
[4]
  IC50: 18100 nM
[5]
  IC50: 33800 nM
Cholinesterase
  IC50: 28.7 nM
Acetylcholinesterase
  IC50: 456 nM

## C#CCN(C)[C@H](C)Cc1ccc(OCCCCCNc2c3c(nc4cc(Cl)ccc24)CCCC3)cc1
[3]
  Ratio IC50: 0.5
[4]
  IC50: 6210 nM
[5]
  IC50: 2860 nM
Cholinesterase
  IC50: 18.6 nM
Acetylcholinesterase
  IC50: 82 nM

## C#CCN(C)[C@H](C)Cc1ccc(OCCCCCNc2c3c(nc4ccccc24)CCCC3)cc1
[3]
  Ratio IC50: 0.5
[4]
  IC50: 2400 nM
[5]
  IC50: 1260 nM
Cholinesterase
  IC50: 23.5 nM
Acetylcholinesterase
  IC50: 77.6 nM

## C#CCN(C)[C@H](C)Cc1ccc(OCCCCCCNc2c3c(nc4cc(Cl)ccc24)CCCC3)cc1
[3]
  Ratio IC50: 1
[4]
  IC50: 519 nM
[5]
  IC50: 521 nM
Cholinesterase
  IC50: 18.8 nM
Acetylcholinesterase
  IC50: 79.3 nM

## C#CCN(C)[C@H](C)Cc1ccc(OCCNc2c3c(nc4ccccc24)CCCC3)cc1
[3]
  Ratio IC50: 7
[4]
  IC50: 693 nM
[5]
  IC50: 4860 nM
Cholinesterase
  IC50: 50.6 nM
Acetylcholinesterase
  IC50: 83.1 nM

## C#CCN(C)[C@H](C)Cc1ccc(OCCCCCCCCCCNc2c3c(nc4ccccc24)CCCC3)cc1
[3]
  Ratio IC50: 0.9
[4]
  IC50: 346 nM
[5]
  IC50: 313 nM
Cholinesterase
  IC50: 2.03 nM
Acetylcholinesterase
  IC50: 23.2 nM

## C#CCN(C)[C@H](C)Cc1ccc(OCCCNc2c3c(nc4cc(Cl)ccc24)CCCC3)cc1
[3]
  Ratio IC50: 0.8
[4]
  IC50: 11100 nM
[5]
  IC50: 9050 nM
Cholinesterase
  IC50: 66 nM
Acetylcholinesterase
  IC50: 14.2 nM

## C#CCN(C)[C@H](C)Cc1ccc(OCCCNc2c3c(nc4ccccc24)CCCC3)cc1
[3]
  Ratio IC50: 9.7
[4]
  IC50: 4460 nM
[5]
  IC50: 43400 nM
Cholinesterase
  IC50: 41.4 nM
Acetylcholinesterase
  IC50: 36.1 nM

## C#CCN(C)[C@H](C)Cc1ccc(OCCCCCCNc2c3c(nc4ccccc24)CCCC3)cc1
[3]
  Ratio IC50: 1.9
[4]
  IC50: 209 nM
[5]
  IC50: 398 nM
Cholinesterase
  IC50: 16.1 nM
Acetylcholinesterase
  IC50: 138 nM
